{"source": "patent US20050026223A1", "about": "“Method and compositions for increasing bone mass” (The Board of Trustees of the University of Arkansas, priority 1999, published 2005)", "key": {"[1]": {"tested_on": "osteoblastic cells derived from murine calvaria", "assay": "Etoposide-induced apoptosis of osteoblastic cells derived from murine calvaria (trypan blue uptake)", "assay_type": "cell-based", "details": "for Lowest Effective Concentration: inhibition of etoposide-induced osteoblast apoptosis, 1 hour pretreatment, trypan blue after 6 hours; for Suppression by 10^−8 M Flutamide: suppression of the anti-apoptotic effect by the androgen receptor antagonist flutamide; for Anti-apoptotic effect on osteoblastic cells after ICI182,780: compound 10^−8 M, 1 h pretreatment with ICI182,780 10^−7 M", "method": "Osteoblastic cells derived from murine calvaria were pretreated with the sterols for 1 hour before the addition of the pro-apoptotic agent, etoposide. Apoptosis was determined after 6 hours by trypan blue uptake (Jilka et al, J. Bone and Min. Res. 13:793:802, 1998). * indicates p<0.05 versus etoposide alone, by analysis of variance (ANOVA) (Student-Newman-Keuls method).\nOsteoblastic cells derived from murine calvaria were pretreated for 1 hour with the pure receptor antagonist ICI182,780 (10^−7 M) before the addition of the test agents (10^−8 M). Apoptosis was induced and quantified as described in FIG. 3. * indicates p<0.05 versus etoposide alone, by ANOVA (Student-Newman-Keuls method).\nIn this experiment, osteoblastic cells were derived from murine calvaria and were pretreated with the sterols for 1 hour before the addition of the pro-apoptotic agent, etoposide.\nIn these experiments, cells were pretreated with the indicated concentrations of the various compounds for 1 hour, in the absence or presence of the androgen receptor antagonist flutamide, before the addition of the proapoptotic agent etoposide. Apoptosis was determined after 6 hours by trypan blue uptake as described in FIG. 3."}, "wild type HeLa cells": {"tested_on": "wild type HeLa cells", "assay": "Etoposide-induced apoptosis of wild type HeLa cells", "assay_type": "cell-based, human", "details": "compound 10^−8 M 1 h, etoposide 5×10^−5 M 6 hour", "excerpt": "CMV promoter alone and CMV promoter-driven cDNA for mERα or mErβ were stably transfected into HeLa cells. […] Cells were trypsinized, pelleted and trypan blue positive cells enumerated. Each bar represents mean of duplicate experiments ±SEM. *P<0.02 versus etoposide alone.\n(§1) In this experiment, instead of calvaria cells, human HeLa cells which contain undetectable, if any, estrogen receptor were used. HeLa cells were stably transfected with either a CMV promoter-driven cDNA for the murine estrogen receptor-alpha (mERα) or a CMV promoter-driven cDNA for the murine estrogen receptor-beta (mERβ). […] Cells were trypsinized, pelleted and trypan blue positive cells were enumerated."}, "[2]": {"tested_on": "HeLa cells transfected with estrogen receptor β (mERβ)", "assay": "Etoposide-induced apoptosis of HeLa cells stably transfected with mERβ", "assay_type": "cell-based, human", "details": "compound 10^−8 M 1 h, etoposide 5×10^−5 M 6 hour", "excerpt": "(§2) CMV promoter alone and CMV promoter-driven cDNA for mERα or mErβ were stably transfected into HeLa cells. […] Cells were trypsinized, pelleted and trypan blue positive cells enumerated.\nas §1"}, "[3]": {"tested_on": "HeLa cells transfected with the estrogen receptor α (mERα)", "assay": "Etoposide-induced apoptosis of HeLa cells stably transfected with mERα", "assay_type": "cell-based, human", "details": "compound 10^−8 M 1 h, etoposide 5×10^−5 M 6 hour", "excerpt": "as §2, §1"}, "[4]": {"tested_on": "extracellular signal regulated kinases (ERKs) 1 and 2", "assay": "Western blot of phosphorylated ERK1/2 in MLO-Y4 osteocytic cells", "assay_type": "cell-based, murine", "details": "for Activation of ERKs (phosphorylated fraction of ERK1/2): 10^−8 M, 5, 15 or 30 minutes; for Ability to activate ERKs in the presence of PD98059: compound 10^−8 M, 5 minutes, 50 μM PD98059", "method": "(§3) MLO-Y4 osteocytic cells were incubated for 25 minutes in serum-free medium. […] Cell lysates were prepared and proteins were separated by electrophoresis in polyacrylamide gels and transferred to PVDF membranes. Western blotting was performed using a specific antibody recognizing phosphorylated ERKs 1 and 2, followed by reblotting with an antibody recognizing total ERKs. Blots were developed by enhanced chemiluminescence.\nas §3, with “MLO-Y4” for “MLO-Y4 osteocytic”, “medium in the presence or absence of 50 μM PD98059.” for “medium.”\nas §3, with “In this experiment, MLO-Y4” for “MLO-Y4”, “extracellular signal regulated kinases” for “ERKs”, “extracellular signal regulated kinases.” for “ERKs.”, “chemiluminescence. […] This effect is too rapid to be accounted for by the classical mechanism of estrogen action.” for “chemiluminescence.”\nas §3, with “In this experiment, MLO-Y4” for “MLO-Y4”, “medium in the presence or absence of 50 μM PD98059.” for “medium.”, “extracellular signal regulated kinases” for “ERKs”, “extracellular signal regulated kinases.” for “ERKs.”"}, "MLO-Y4 osteocytic cells [5]": {"tested_on": "MLO-Y4 osteocytic cells", "assay": "Dexamethasone-induced apoptosis of MLO-Y4 osteocytic cells with PD98059", "assay_type": "cell-based, murine", "details": "compound 10^−8 M; PD98059 1 hour; dexamethasone 6 hours", "method": "Apoptosis was induced by incubation with the pro-apoptotic agent dexamethasone for 6 hour and quantified as described in FIG. 3. * indicates p<0.05 versus the corresponding control group without dexamethasone, by ANOVA (Student-Newman-Keuls method).\nThat indeed the anti-apoptotic effect of all the compounds tested herein was mediated via activation of ERKs was established by the results of the experiments shown in FIG. 10. […] Apoptosis was induced by incubation with the pro-apoptotic agent dexamethasone for 6 hours and quantified as described in FIG. 3."}, "MLO-Y4 osteocytic cells [6]": {"tested_on": "MLO-Y4 osteocytic cells", "assay": "Etoposide-induced apoptosis of MLO-Y4 osteocytic cells (trypan blue uptake)", "assay_type": "cell-based, murine", "details": "for Inhibition of etoposide-induced apoptosis of osteocytic cell line: 1 h pretreatment before etoposide, trypan blue after 6 h; for Antiapoptotic effect on osteocytes after ICI182,780: 1 h pretreatment with ICI182,780 10^−7 M", "method": "Cells were pretreated with the indicated concentrations of the compounds for 1 hour before the addition of the pro-apoptotic agent etoposide. Apoptosis was determined after 6 hour by trypan blue uptake as described in FIG. 3. * indicates p<0.05 versus etoposide alone, by ANOVA (Student-Newman-Keuls method).\nMLO-Y4 cells were pretreated for 1 hour with the pure receptor antagonist ICI182,780 (10^−7 M) before the addition of the test agents (10^−8 M). Apoptosis was induced and quantified as described in FIG. 3. * indicates p<0.05 versus etoposide alone, by ANOVA (Student-Newman-Keuls method).\nIn this experiment, MLO-Y4 cells were pretreated with the indicated concentrations of the various compounds for 1 h before the addition of the pro-apoptotic agent, etoposide. Apoptosis was determined after 6 h by trypan blue uptake as described in FIG. 3."}, "osteoclasts": {"tested_on": "osteoclasts", "details": "increased from approximately 0.5%; cited from earlier work"}, "[7]": {"details": "rats, intravenously; cited from earlier work"}, "[8]": {"details": "human iliac trabecular bone, after one year of treatment; cited from earlier work"}, "[9]": {"details": "for at least four years; cited from earlier work"}, "osteoblasts": {"tested_on": "osteoblasts", "details": "intermittent administration in mice; decreased from 1.7-2.2%; cited from earlier work"}}, "data": [{"molecule": "C[C@]12CCC(=O)C=C1CC[C@@H]1[C@@H]2CC[C@]2(C)C(=O)CC[C@@H]12", "note": "[4-androstene-3,17-dione]", "values": [{"measurement": "Lowest Effective Concentration", "setting": "[1]", "result": "10^−8 M"}, {"measurement": "Suppression by 10^−8 M Flutamide", "setting": "[1]", "result": "yes"}]}, {"molecule": "C[C@]12CC[C@H]3[C@@H](CC=C4C[C@@H](O)CC[C@@]43C)[C@@H]1CC[C@@H]2O", "note": "[5-androstene-3β-17_-diol]", "values": [{"measurement": "Lowest Effective Concentration", "setting": "[1]", "result": "10^−8 M"}, {"measurement": "Suppression by 10^−8 M Flutamide", "setting": "[1]", "result": "yes"}]}, {"molecule": "C[C@]12CCC(=O)C[C@@H]1CC[C@@H]1[C@@H]2CC[C@]2(C)[C@@H](O)CC[C@@H]12", "note": "[5-α-dihydrotestosterone]", "values": [{"measurement": "Lowest Effective Concentration", "setting": "[1]", "result": "10^−9 M"}, {"measurement": "Suppression by 10^−8 M Flutamide", "setting": "[1]", "result": "yes"}]}, {"molecule": "C[C@]12CCC(=O)C[C@@H]1CC[C@@H]1[C@@H]2CC[C@]2(C)[C@@H](O)CC[C@@H]12", "note": "[5-β-dihydrotestosterone]", "values": [{"measurement": "Lowest Effective Concentration", "setting": "[1]", "result": "10^−10 M"}, {"measurement": "Suppression by 10^−8 M Flutamide", "setting": "[1]", "result": "yes"}]}, {"molecule": "C[C@]12CC[C@@H]3c4ccc(O)cc4CC[C@H]3[C@@H]1CC[C@H]2O", "note": "[17α-estradiol]", "values": [{"measurement": "Effect on etoposide-induced apoptosis", "setting": "wild type HeLa cells", "result": "none of the three compounds had any effect"}, {"measurement": "Effect on etoposide-induced apoptosis", "setting": "[2]", "result": "potently inhibited"}, {"measurement": "Effect on etoposide-induced apoptosis", "setting": "[3]", "result": "potently inhibited"}, {"measurement": "Activation of ERKs (phosphorylated fraction of ERK1/2)", "setting": "[4]", "result": "activated"}, {"measurement": "Ability to activate ERKs in the presence of PD98059", "setting": "[4]", "result": "abrogated"}, {"measurement": "Anti-apoptotic effect on osteoblastic cells after ICI182,780", "setting": "[1]", "result": "abrogated"}, {"measurement": "Anti-apoptotic effect after PD98059 pretreatment", "setting": "MLO-Y4 osteocytic cells [5]", "result": "prevented the anti-apoptotic effect"}, {"measurement": "Inhibition of etoposide-induced apoptosis of osteocytic cell line", "setting": "MLO-Y4 osteocytic cells [6]", "result": "dose-dependently inhibited"}, {"measurement": "Antiapoptotic effect on osteocytes after ICI182,780", "setting": "MLO-Y4 osteocytic cells [6]", "result": "abrogated"}]}, {"molecule": "C[C@]12CC[C@@H]3c4ccc(O)cc4CC[C@H]3[C@@H]1CC[C@@H]2O", "note": "[17β-estradiol, reference compound]", "values": [{"measurement": "Apoptosis of osteoclasts", "setting": "osteoclasts", "result": "≤ 2.7", "unit": "%"}, {"measurement": "Effect on etoposide-induced apoptosis", "setting": "wild type HeLa cells", "result": "none of the three compounds had any effect"}, {"measurement": "Effect on etoposide-induced apoptosis", "setting": "[2]", "result": "potently inhibited"}, {"measurement": "Effect on etoposide-induced apoptosis", "setting": "[3]", "result": "potently inhibited"}, {"measurement": "Activation of ERKs (phosphorylated fraction of ERK1/2)", "setting": "[4]", "result": "activated"}, {"measurement": "Ability to activate ERKs in the presence of PD98059", "setting": "[4]", "result": "abrogated"}, {"measurement": "Inhibition of etoposide-induced osteoblast apoptosis", "setting": "[1]; 1 hour pretreatment before etoposide", "result": "prevented apoptosis of osteoblastic cells isolated from murine calvaria, in a dose dependent manner"}, {"measurement": "Anti-apoptotic effect on osteoblastic cells after ICI182,780", "setting": "[1]", "result": "abrogated"}, {"measurement": "Anti-apoptotic effect after PD98059 pretreatment", "setting": "MLO-Y4 osteocytic cells [5]", "result": "prevented the anti-apoptotic effect"}, {"measurement": "Inhibition of etoposide-induced apoptosis of osteocytic cell line", "setting": "MLO-Y4 osteocytic cells [6]", "result": "dose-dependently inhibited"}, {"measurement": "Antiapoptotic effect on osteocytes after ICI182,780", "setting": "MLO-Y4 osteocytic cells [6]", "result": "abrogated"}]}, {"molecule": "C[C@]12CC[C@H](OS(=O)(=O)O)CC1=CC[C@@H]1[C@@H]2CC[C@]2(C)C(=O)CC[C@@H]12", "note": "[Dehydroisoandrosterone-3-sulfate (DHES), Dehydroisoandrosterone-3-sulfate]", "values": [{"measurement": "Lowest Effective Concentration", "setting": "[1]", "result": "10^−8 M"}, {"measurement": "Suppression by 10^−8 M Flutamide", "setting": "[1]", "result": "no*"}]}, {"molecule": "CC(=O)N[C@@H](CS)C(=O)O", "note": "[N-acetylcysteine, acetamido-mercaptopropionic acid]", "values": [{"measurement": "LD50", "setting": "[7]", "result": 1140, "unit": "mg/kg"}]}, {"molecule": "C[C@]1(O)CC[C@H]2[C@@H]3CCC4=CC(=O)CCC4=C3C=C[C@@]21C", "note": "[RU1881]", "values": [{"measurement": "Lowest Effective Concentration", "setting": "[1]", "result": "10^−8 M"}, {"measurement": "Suppression by 10^−8 M Flutamide", "setting": "[1]", "result": "yes"}]}, {"molecule": "C[C@]12CC[C@H]3[C@@H](CCC4=CC(=O)CC[C@@]43C)[C@@H]1CC[C@@H]2O", "note": "[Testosterone]", "values": [{"measurement": "Lowest Effective Concentration", "setting": "[1]", "result": "10^−9 M"}, {"measurement": "Suppression by 10^−8 M Flutamide", "setting": "[1]", "result": "yes"}]}, {"molecule": "CC(O)(P(=O)(O)O)P(=O)(O)O", "note": "[etidronate]", "values": [{"measurement": "Reduction of resorption depth", "setting": "[8]", "result": "~30", "unit": "%"}]}, {"molecule": "[F-].[Na+]", "note": "[sodium fluoride]", "values": [{"measurement": "Increase of vertebral bone mass", "setting": "[9]", "result": 10, "unit": "% a year"}]}, {"molecule": "PTH: parathyroid hormone, an agent known for its role in calcium homeostasis (protein, UniProt P01270 32-115, looked up, Parathyroid hormone, parathyroid hormone, an agent known for its role in calcium homeostasis) Parathyroid hormone: SVSEIQLMHNLGKHLNSMERVEWLRKKLQDVHNFVALGAPLAPRDAGSQRPRKKEDNVLVESHEKSLGEADKADVNVLTKAKSQ", "values": [{"measurement": "Prevalence of osteoblast apoptosis", "setting": "osteoblasts", "result": "0.1-0.4%"}]}]}
